{
  "source": "patent US20220396569A1",
  "about": "(Carmot Therapeutics, Inc., priority 2021, published 2022)",
  "note": "pEC50: −log10 of the molar value.",
  "data": [
    {"target": "T1, human GLP-1 receptor (Homo sapiens, UniProt P43220)", "T1 construct": "expressed in transfected cells", "T1 sequence (P43220 24-463)": "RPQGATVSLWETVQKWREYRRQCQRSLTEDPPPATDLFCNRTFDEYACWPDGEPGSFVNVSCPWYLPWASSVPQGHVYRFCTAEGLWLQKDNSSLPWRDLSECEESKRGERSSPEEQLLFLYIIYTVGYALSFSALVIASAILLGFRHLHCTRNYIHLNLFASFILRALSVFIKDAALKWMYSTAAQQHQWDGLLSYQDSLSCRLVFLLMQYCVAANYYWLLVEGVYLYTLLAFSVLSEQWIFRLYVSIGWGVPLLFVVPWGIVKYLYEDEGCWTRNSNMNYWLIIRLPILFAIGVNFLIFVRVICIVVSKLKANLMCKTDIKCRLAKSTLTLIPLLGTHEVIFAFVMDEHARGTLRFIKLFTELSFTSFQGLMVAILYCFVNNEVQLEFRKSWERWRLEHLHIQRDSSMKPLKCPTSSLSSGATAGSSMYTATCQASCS", "test": "GLP-1R cAMP Assay (HitHunter cAMP accumulation)", "type": "cell-based", "details": "cAMP accumulation, CHO cells stably overexpressing human GLP-1 receptor, 30 min treatment; read-out: EC50", "method_in_brief": "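CHO cells stably expressing human GLP-1R, 10,000 cells/well in HBSS with 10 mM HEPES and 625 μM IBMX, were mixed with anti-cAMP antibody reagent. Compound was applied as a 20-point dose response in triplicate for 30 min. After lysis and overnight detection, luminescence was read and dose-response curves analysed.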", "values": [
      {"smiles": "O=C(O)c1ccc2nc(CN3CC=C(c4ccnc(COc5ccc(Cl)cc5F)c4)C3)n(C[C@@H]3CCO3)c2c1", "note": "[Compound 403, 2-[(3-{2-[(4-chloro-2-fluorophenoxy)methyl]pyridin-4-yl}-2,5-dihydro-1H-pyrrol-1-yl)methyl]-1-{[(2S)-oxetan-2-yl]methyl}-1H-1,3-benzodiazole-6-carboxylic acid]", "pEC50": "> 7.30"},
      {"smiles": "CCn1cncc1Cn1c(CN2CC(=Cc3cccc(COc4ccc(Cl)cc4Cl)c3)C2)nc2ccc(C(=O)O)cc21", "note": "[Compound 196]", "pEC50": "> 7.30"},
      {"smiles": "O=C(O)c1cc(F)c2nc(CN3CC[C@@H](c4cccc(COc5ccc(Cl)cc5F)n4)C3)n(C[C@@H]3CCO3)c2c1", "note": "[Compound 441, 2-{[(3R)-3-{6-[(4-chloro-2-fluorophenoxy)methyl]pyridin-2-yl}pyrrolidin-1-yl]methyl}-4-fluoro-1-{[(2S)-oxetan-2-yl]methyl}-1H-1,3-benzodiazole-6-carboxylic acid]", "pEC50": "6.30 to 7.30"},
      {"smiles": "C[C@H]1[C@@H](Oc2ccnc(COc3ccc(C#N)cc3F)n2)CN1Cc1nc2c(F)cc(C(=O)O)cc2n1C[C@@H]1CCO1", "note": "[Compound 546, 2-{[(2S,3S)-3-({2-[(4-cyano-2-fluorophenoxy)methyl]pyrimidin-4-yl}oxy)-2-methylazetidin-1-yl]methyl}-4-fluoro-1-{[(2S)-oxetan-2-yl]methyl}-1H-1,3-benzodiazole-6-carboxylic acid]", "pEC50": "> 7.30"},
      {"smiles": "CC1(c2ccc(Cl)cn2)Oc2cccc(CC3CCN(Cc4nc5ccc(C(=O)O)cc5n4C[C@@H]4CCO4)CC3)c2O1", "note": "(stereo partly drawn) [Example 173, 2-((4-((2-(5-Chloropyridin-2-yl)-2-methylbenzo[d][1,3]dioxol-4-yl)methyl)piperidin-1-yl)methyl)-1-(((S)-oxetan-2-yl)methyl)-1H-benzo[d]imidazole-6-carboxylic acid]", "pEC50": "6.30 to 7.30"},
      {"smiles": "CCn1cncc1Cn1c(Cc2ccc(Oc3ccnc(COc4ccc(C#N)cc4F)n3)cc2F)nc2ccc(C(=O)O)cc21", "note": "[Example 460, 2-(4-((2-((4-Cyano-2-fluorophenoxy)methyl)pyrimidin-4-yl)oxy)-2-fluorobenzyl)-1-((1-ethyl-1H-imidazol-5-yl)methyl)-1H-benzo[d]imidazole-6-carboxylic acid]", "pEC50": "> 7.30"},
      {"smiles": "O=C(O)c1ccc2nc(CN3CCC(c4ccc(F)c(COc5ccc(Cl)cc5Cl)c4)C3)n(C[C@@H]3CCO3)c2c1", "note": "(stereo partly drawn) [Compound 389, 2-[(3-{3-[(2,4-dichlorophenoxy)methyl]-4-fluorophenyl}pyrrolidin-1-yl)methyl]-1-{[(2S)-oxetan-2-yl]methyl}-1H-1,3-benzodiazole-6-carboxylic acid]", "pEC50": "> 7.30"},
      {"smiles": "N#Cc1ccc(OCc2cc([C@@H]3CCN(Cc4nc5ccc(C(=O)O)cc5n4C[C@@H]4CCO4)C3)ccc2F)c(F)c1", "note": "[Compound 443, 2-{[(3S)-3-{3-[(4-cyano-2-fluorophenoxy)methyl]-4-fluorophenyl}pyrrolidin-1-yl]methyl}-1-{[(2S)-oxetan-2-yl]methyl}-1H-1,3-benzodiazole-6-carboxylic acid]", "pEC50": "> 7.30"},
      {"smiles": "O=C(O)c1ccc2nc(CN3CC(=Cc4ccnc(COc5ccc(Cl)cc5Cl)c4)C3)n(C[C@@H]3CCO3)c2c1", "note": "[Compound 190, 2-{[3-({2-[(2,4-dichlorophenoxy)methyl]pyridin-4-yl}methylidene)azetidin-1-yl]methyl}-1-{[(2S)-oxetan-2-yl]methyl}-1H-1,3-benzodiazole-6-carboxylic acid]", "pEC50": "> 7.30"},
      {"smiles": "N#CCC1(Cn2c(CN3CC[C@H](c4ccnc(COc5ccc(Cl)cc5F)c4)C3)nc3c(F)cc(C(=O)O)cc32)CC1", "note": "[Compound 434, 2-{[(3R)-3-{2-[(4-chloro-2-fluorophenoxy)methyl]pyridin-4-yl}pyrrolidin-1-yl]methyl}-1-{[1-(cyanomethyl)cyclopropyl]methyl}-4-fluoro-1H-1,3-benzodiazole-6-carboxylic acid]", "pEC50": "6.30 to 7.30"},
      {"smiles": "C[C@H]1[C@@H](Oc2ccnc(COc3ccc(F)cc3C#N)n2)CN1Cc1nc2ccc(C(=O)O)cc2n1C[C@@H]1CCO1", "note": "[Compound 549, 2-{[(2S,3S)-3-({2-[(2-cyano-4-fluorophenoxy)methyl]pyrimidin-4-yl}oxy)-2-methylazetidin-1-yl]methyl}-1-{[(2S)-oxetan-2-yl]methyl}-1H-1,3-benzodiazole-6-carboxylic acid]", "pEC50": "< 6.30"},
      {"smiles": "N#Cc1ccc(OCc2nc([C@@H]3C[C@@H](CF)N(Cc4nc5ccc(C(=O)O)cc5n4C[C@@H]4CCO4)C3)ccc2F)c(F)c1", "note": "(single isomer, unassigned) [Compound 526]", "pEC50": "6.30 to 7.30"},
      {"smiles": "O=C(O)c1ccc2nc(CN3CC(Oc4ccnc(COc5ccc(Cl)cc5Cl)c4)C3)n(Cc3ccno3)c2c1", "note": "[Compound 236, 2-{[3-({2-[(2,4-dichlorophenoxy)methyl]pyridin-4-yl}oxy)azetidin-1-yl]methyl}-1-[(1,2-oxazol-5-yl)methyl]-1H-1,3-benzodiazole-6-carboxylic acid]", "pEC50": "> 7.30"},
      {"smiles": "N#Cc1ccc(OCc2cc(Oc3ccc(Cc4nc5c(F)cc(C(=O)O)cc5n4C[C@@H]4CCO4)c(C#N)c3)ccn2)c(F)c1", "note": "[Compound 543, 2-{[2-cyano-4-({2-[(4-cyano-2-fluorophenoxy)methyl]pyridin-4-yl}oxy)phenyl]methyl}-4-fluoro-1-{[(2S)-oxetan-2-yl]methyl}-1H-1,3-benzodiazole-6-carboxylic acid]", "pEC50": "> 7.30"},
      {"smiles": "O=C(O)c1ccc2nc(CN3CC(Oc4ccnc(COc5ccc(Cl)cc5Cl)c4)C3)n(Cc3cnco3)c2c1", "note": "[Example 219, 2-((3-((2-((2,4-Dichlorophenoxy)methyl)pyridin-4-yl)oxy)azetidin-1-yl)methyl)-1-(oxazol-5-ylmethyl)-1H-benzo[d]imidazole-6-carboxylic acid]", "pEC50": "> 7.30"},
      {"smiles": "N#CCC1(Cn2c(CN3CC[C@H](c4ccnc(COc5ccc(Cl)cc5F)c4)C3)nc3ccc(C(=O)O)cc32)CC1", "note": "[Compound 433, 2-{[(3R)-3-{2-[(4-chloro-2-fluorophenoxy)methyl]pyridin-4-yl}pyrrolidin-1-yl]methyl}-1-{[1-(cyanomethyl)cyclopropyl]methyl}-1H-1,3-benzodiazole-6-carboxylic acid]", "pEC50": "6.30 to 7.30"},
      {"smiles": "CC1(c2ccc(Cl)cc2F)Oc2cccc(CC3CCN(Cc4nc5ccc(C(=O)O)cc5n4C[C@@H]4CCO4)CC3)c2O1", "note": "(stereo partly drawn) [Example 201, 2-((4-((2-(4-Chloro-2-fluorophenyl)-2-methylbenzo[d][1,3]dioxol-4-yl)methyl)piperidin-1-yl)methyl)-1-(((S)-oxetan-2-yl)methyl)-1H-benzo[d]imidazole-6-carboxylic acid]", "pEC50": "6.30 to 7.30"},
      {"smiles": "O=C(O)c1cc(F)c2nc(CN3CC=C(c4nc(COc5ccc(Cl)cc5Cl)ccc4F)C3)n(C[C@@H]3CCO3)c2c1", "note": "[Compound 451, 2-[(3-{6-[(2,4-dichlorophenoxy)methyl]-3-fluoropyridin-2-yl}-2,5-dihydro-1H-pyrrol-1-yl)methyl]-4-fluoro-1-{[(2S)-oxetan-2-yl]methyl}-1H-1,3-benzodiazole-6-carboxylic acid]", "pEC50": "> 7.30"},
      {"smiles": "O=C(O)c1ccc2nc(CN3CC[C@H](c4ccc(F)c(COc5ccc(Cl)cc5F)n4)C3)n(C[C@@H]3CCO3)c2c1", "note": "(single isomer, unassigned) [Compound 517]", "pEC50": "> 7.30"},
      {"smiles": "O=C(O)c1ccc2nc(CN3CC[C@H](Oc4ccnc(COc5ccc(C(F)F)cc5F)c4)C3)n(C[C@@H]3CCO3)c2c1", "note": "[Compound 298, 2-{[(3S)-3-[(2-{[4-(difluoromethyl)-2-fluorophenoxy]methyl}pyridin-4-yl)oxy]pyrrolidin-1-yl]methyl}-1-{[(2S)-oxetan-2-yl]methyl}-1H-1,3-benzodiazole-6-carboxylic acid]", "pEC50": "> 7.30"}
    ]}
  ]
}
